# According to publication PMC12669040, “Tumour-specific STING agonist synthesis via a two-component prodrug system” (Nature Chemistry, 2025):
# Values joined by “and” are separate entries in the source; they are usually repeats but may differ in a detail not shown here. Identical values can stand only once. Like-named read-outs stand apart in the source and are kept apart here.
# Key:
# [1] = molecular target: T1, wild-type human STING LBD (hSTINGwt 138-379) (Homo sapiens, UniProt Q86WV6, H232R); assay: Isothermal titration calorimetry (ITC), reverse titration; assay type: binding
# T1 construct: SUMO (N, cleaved yes); made in house; host or cells: Escherichia coli BL21 (DE3)
# Protocol: Escherichia coli BL21 (DE3) (Thermo Scientific EC0114) was transformed with a pET28a plasmid (Genscript) harbouring the codon-optimized sequence of SUMO-hSTINGwt (aa138-379). Transformed BL21 cells were inoculated into LB medium (50 µg ml^−1 kanamycin) and incubated at 180 rpm, 37 °C overnight. The overnight culture was then diluted (1:100 dilution) in 2× YT medium (50 µg ml^−1 kanamycin) and incubated at 180 rpm, 37 °C until optical density at 600 nm (OD600) reached 0.6 (approximately 3 h). The bacterial culture was then cooled to 16 °C, induced with 0.5 mM isopropyl 1-thio-D-galactopyranoside and incubated overnight at 180 rpm, 16 °C. The bacterial cells were pelleted at 4,000g for 30 min, resuspended in 20 ml of lysis buffer (25 mM HEPES pH 7.5, 150 mM NaCl, 20 mM imidazole and 2 mM TCEP supplied with 2 tablets of cOmplete mini EDTA-free protease inhibitors) and disrupted by sonication on ice. The total lysate was clarified by centrifugation at 22,000g for 30 min. The supernatant was collected and filtered through a 0.45-µm filter (Millipore SLHAR33SS). The clarified lysate was then incubated on a roller with 10 ml bed volume of Ni-NTA resin (Thermo Scientific 88223) at 4 °C for 1 h. The Ni-NTA resin was then packed in a column, flushed with 20 ml of wash buffer (25 mM HEPES pH 7.5, 150 mM NaCl and 20 mM imidazole) and eluted with 40 ml of elution buffer (25 mM HEPES pH 8.0, 150 mM NaCl and 250 mM imidazole). The eluted protein was concentrated to approximately 5 ml (Millipore Amicon 10 kDa molecular weight cut-off (MWCO)) and buffer-exchanged into storage buffer (25 mM HEPES pH 7.5 and 150 mM NaCl). TCEP was then added to a final concentration of 2 mM, and 250 units of SUMO protease (Merck SAE0067) were added. The cleavage reaction mixture was left to stand at 4 °C overnight until LC–MS analysis indicated the completion of the cleavage reaction. The cleavage mixture was incubated with 10 ml bed volume of Ni-NTA resin on a roller at 4 °C for 1 h and packed in a disposable column. The flowthrough was collected, and the resin was further flushed with 20 ml of wash buffer. The eluted fractions were combined, concentrated and further purified by size-exclusion chromatography (Cytiva, Superdex 200 Increase 10/300 GL). The purified protein in storage buffer was concentrated to 330 µM (dimer concentration) as determined by bicinchoninic acid (BCA) assay, aliquoted, flash-frozen in liquid nitrogen and stored at −80 °C for future use.
# The binding constants of purified dimers were measured by ITC (Malvern Panalytical AutoITC200) in a reverse-titration format. Stock DMSO solutions of each dimer were dissolved in titration buffer (25 mM HEPES pH 7.5 and 150 mM NaCl) to a final concentration of 25 µM and added to the titration cell. The syringe was filled with 250 µM of purified STING in a matching buffer. Titration was performed at 25 °C with the following parameters: 750 rpm stirring, 0.2 µl initial injection followed by 2-µl injections of the […] every 120 s. Titration of STING protein into blank buffer was separately performed and subtracted from the raw data before the analysis. The background-subtracted titration curves were fitted with the built-in Origin software using the standard one-site model.
# Extended Data Fig. 2 Isothermal titration calorimetry (ITC) data for binding constant measurements. Purified hSTINGwt138-379 (250 μM of homodimer) was titrated into each dimer (25 μM) dissolved in a matching buffer (25 mM HEPES pH 7.5, 150 mM NaCl) at 25 °C and 750 rpm stirring. Binding constants were reported as the average from duplicate measurements.
# [2] = test system: THP-1 Lucia ISG cells (interferon pathway); assay: Potency test of purified dimers on THP-1 Lucia ISG reporter cells; assay type: cell-based, human; settings: for Raw readings: replicates 1-3; for fold induction at 0.000508053 µM / fold induction at 0.00152416 µM / fold induction at 0.00457247 µM / fold induction at 0.37037 µM / fold induction at 1.11111 µM / fold induction at 3.33333 µM / EC50 / fold induction at 0.0137174 µM / fold induction at 0.0411523 µM / fold induction at 0.123457 µM / fold induction at 10 µM: Homo sapiens, THP1-Lucia ISG, 24 h; for fold induction at 0.000508053 µM: Concentration 0.508053 nM; for fold induction at 0.000508053 µM / fold induction at 0.00152416 µM / fold induction at 0.00457247 µM / fold induction at 0.37037 µM / fold induction at 1.11111 µM / fold induction at 3.33333 µM / fold induction at 0.0137174 µM / fold induction at 0.0411523 µM / fold induction at 0.123457 µM / fold induction at 10 µM: three replicates, read-out: Processed reporter response per replicate (reading relative to DMSO); for fold induction at 0.00152416 µM: Concentration 1.52416 nM; for fold induction at 0.00457247 µM: Concentration 4.57247 nM; for fold induction at 0.37037 µM: Concentration 370.37 nM; for fold induction at 1.11111 µM: Concentration 1111.11 nM; for fold induction at 3.33333 µM: Concentration 3333.33 nM; for EC50: three biological replicates, mean ± s.d., read-out: EC50 THP-1; for fold induction at 0.0137174 µM: Concentration 13.7174 nM; for fold induction at 0.0411523 µM: Concentration 41.1523 nM; for fold induction at 0.123457 µM: Concentration 123.457 nM; for fold induction at 10 µM: Concentration 10000 nM
# Protocol: Cells were pelleted (150g, 10 min) and resuspended in the growth medium (40% conditioned) at a density of 1 × 10^6 cells ml^−1. The cell suspension was dispensed (50 µl each well) into a lidded white 96-well plate (BrandTech 781665). Test compounds or DMSO control were diluted in the growth medium and sterilized by filtering through 0.22-µm polyethersulfone (PES) membranes (Merck SLGP033RS). […] Upon cooling down to room temperature, 50 µl of reconstituted luciferase substrate (InvivoGen QUANTI-Luc) was added to each well via the injector of the plate reader (Molecular Devices SpectraMax i3x), and the luminescence output was recorded (4 s delay, 0.1 s integration). Raw signals were divided by the averaged signal of the DMSO-treated control wells and reported in relative luminescence unit (RLU). The dose–response curve of each replicate was fitted individually using the standard 4PL model (GraphPad Prism). The EC50 value of each compound was averaged from three independent experiments and reported as mean ± s.e.m.
# [3] = 25 °C, average of duplicate measurements, read-out: Kd hSTINGwt (binding constant, ITC)
# T1 sequence (Q86WV6 138-379 H232R): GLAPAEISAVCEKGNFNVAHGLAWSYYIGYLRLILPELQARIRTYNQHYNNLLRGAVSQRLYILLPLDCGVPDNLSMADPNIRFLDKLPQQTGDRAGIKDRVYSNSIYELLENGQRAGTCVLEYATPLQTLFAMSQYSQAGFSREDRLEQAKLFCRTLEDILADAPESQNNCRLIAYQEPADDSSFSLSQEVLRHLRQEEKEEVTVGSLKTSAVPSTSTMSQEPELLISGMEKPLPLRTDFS
compound,measurement,setting,value
COc1cc2sc(C(=O)CCC(=O)O)cc2cc1CSc1cc2cc(C(=O)CCC(=O)O)sc2cc1OC [Compound D2],Kd,[1]; [3],46 nM
same,Kd,"[1]; ITC run _01, read-out: Kd",79 nM
same,Kd,"[1]; ITC run _02, read-out: Kd",13 nM
same,Raw readings,[2]; Conc 0.508053 nM,658 RLU and 1263 RLU and 1053 RLU
same,Raw readings,[2]; Conc 1.52416 nM,564 RLU and 729 RLU and 601 RLU
same,Raw readings,[2]; Conc 4.57247 nM,1074 RLU and 921 RLU and 1413 RLU
same,Raw readings,[2]; Conc 13.7174 nM,6767 RLU and 16752 RLU and 12692 RLU
same,Raw readings,[2]; Conc 41.1523 nM,51165 RLU and 121226 RLU and 61063 RLU
same,Raw readings,[2]; Conc 123.457 nM,102439 RLU and 196826 RLU and 100000 RLU
same,Raw readings,[2]; Conc 370.37 nM,111711 RLU and 237713 RLU and 134702 RLU
same,Raw readings,[2]; Conc 1111.11 nM,126733 RLU and 297637 RLU and 176097 RLU
same,Raw readings,[2]; Conc 3333.33 nM,139803 RLU and 327985 RLU and 173658 RLU
same,Raw readings,[2]; Conc 10000 nM,138886 RLU and 307582 RLU and 153848 RLU
same,fold induction at 0.000508053 µM,[2],0.9
same,fold induction at 0.00152416 µM,[2],0.771
same,fold induction at 0.00457247 µM,[2],1.47
same,fold induction at 0.37037 µM,[2],153
same,fold induction at 1.11111 µM,[2],173
same,fold induction at 3.33333 µM,[2],191
same,EC50,[2],74 ± 12 nM
COc1cc2sc(C(=O)CCC(=O)O)cc2cc1CSCc1cc2cc(C(=O)CCC(=O)O)sc2cc1OC [Compound D7],Kd,[1]; [3],12 nM
same,Kd,"[1]; ITC run _01, read-out: Kd",15 nM
same,Kd,"[1]; ITC run _02, read-out: Kd",8 nM
same,Raw readings,[2]; Conc 0.508053 nM,1113 RLU and 627 RLU and 644 RLU
same,Raw readings,[2]; Conc 1.52416 nM,1094 RLU and 992 RLU and 1053 RLU
same,Raw readings,[2]; Conc 4.57247 nM,783 RLU and 1083 RLU and 911 RLU
same,Raw readings,[2]; Conc 13.7174 nM,1811 RLU and 3669 RLU and 2075 RLU
same,Raw readings,[2]; Conc 41.1523 nM,26401 RLU and 56159 RLU and 31852 RLU
same,Raw readings,[2]; Conc 123.457 nM,95964 RLU and 153788 RLU and 83328 RLU
same,Raw readings,[2]; Conc 370.37 nM,127337 RLU and 208679 RLU and 128863 RLU
same,Raw readings,[2]; Conc 1111.11 nM,148790 RLU and 255878 RLU and 161073 RLU
same,Raw readings,[2]; Conc 3333.33 nM,168239 RLU and 288236 RLU and 165803 RLU
same,Raw readings,[2]; Conc 10000 nM,170045 RLU and 271936 RLU and 154582 RLU
same,fold induction at 0.00152416 µM,[2],1.5
same,fold induction at 0.00457247 µM,[2],1.07
same,fold induction at 0.0137174 µM,[2],2.48
same,fold induction at 0.0411523 µM,[2],36.1
same,fold induction at 0.123457 µM,[2],131
same,fold induction at 0.37037 µM,[2],174
same,fold induction at 1.11111 µM,[2],204
same,fold induction at 3.33333 µM,[2],230
same,fold induction at 10 µM,[2],233
same,EC50,[2],119 ± 2 nM
COc1cc2sc(C(=O)CCC(=O)O)cc2cc1CCCSc1cc2cc(C(=O)CCC(=O)O)sc2cc1OC [Compound D4],Raw readings,[2]; Conc 0.508053 nM,972 RLU and 1002 RLU and 881 RLU
same,Raw readings,[2]; Conc 1.52416 nM,820 RLU and 522 RLU and 439 RLU
same,Raw readings,[2]; Conc 4.57247 nM,921 RLU and 829 RLU and 583 RLU
same,Raw readings,[2]; Conc 13.7174 nM,721 RLU and 644 RLU and 533 RLU
same,Raw readings,[2]; Conc 41.1523 nM,942 RLU and 783 RLU and 992 RLU
same,Raw readings,[2]; Conc 123.457 nM,1083 RLU and 911 RLU and 1043 RLU
same,Raw readings,[2]; Conc 370.37 nM,775 RLU and 737 RLU and 829 RLU
same,Raw readings,[2]; Conc 1111.11 nM,962 RLU and 1173 RLU and 1233 RLU
same,Raw readings,[2]; Conc 3333.33 nM,1143 RLU and 434 RLU and 1233 RLU
same,Raw readings,[2]; Conc 10000 nM,8812 RLU and 7169 RLU and 7929 RLU
same,fold induction at 0.000508053 µM,[2],1.37
same,fold induction at 0.00152416 µM,[2],0.714
same,fold induction at 0.00457247 µM,[2],1.13
same,fold induction at 0.0137174 µM,[2],0.881
same,fold induction at 0.0411523 µM,[2],1.07
same,fold induction at 0.123457 µM,[2],1.25
same,fold induction at 0.37037 µM,[2],1.01
same,fold induction at 1.11111 µM,[2],1.6
same,fold induction at 10 µM,[2],9.81
same,EC50,[2],> 10000 nM
COc1cc2sc(C(=O)CCC(=O)O)cc2cc1SCCCSc1cc2cc(C(=O)CCC(=O)O)sc2cc1OC [Compound D6],Raw readings,[2]; Conc 0.508053 nM,775 RLU and 627 RLU and 744 RLU
same,Raw readings,[2]; Conc 1.52416 nM,1043 RLU and 675 RLU and 1023 RLU
same,Raw readings,[2]; Conc 4.57247 nM,1143 RLU and 972 RLU and 595 RLU
same,Raw readings,[2]; Conc 13.7174 nM,992 RLU and 713 RLU and 1033 RLU
same,Raw readings,[2]; Conc 41.1523 nM,501 RLU and 595 RLU and 1053 RLU
same,Raw readings,[2]; Conc 123.457 nM,890 RLU and 1002 RLU and 706 RLU
same,Raw readings,[2]; Conc 370.37 nM,1023 RLU and 470 RLU
same,Raw readings,[2]; Conc 1111.11 nM,689 RLU and 699 RLU and 1023 RLU
same,Raw readings,[2]; Conc 3333.33 nM,595 RLU and 992 RLU and 806 RLU
same,Raw readings,[2]; Conc 10000 nM,722 RLU and 829 RLU and 644 RLU
same,fold induction at 0.000508053 µM,[2],0.858
same,fold induction at 0.00152416 µM,[2],0.923
same,fold induction at 0.00457247 µM,[2],1.33
same,fold induction at 0.0137174 µM,[2],0.975
same,fold induction at 0.123457 µM,[2],1.37
same,fold induction at 1.11111 µM,[2],0.956
same,fold induction at 10 µM,[2],1.13
same,EC50,[2],> 10000 nM
